Test results taken from patent US11014942B2, “Preparation of a solid form of gadobenate dimeglumine” (BRACCO IMAGING S.P.A., priority 2014, dated 2021).

Tests used:
[1] = cited from earlier work; for Log P of antisolvent B: Table 1, CRC Handbook, values labelled * from U.S. National Library of Medicine; for log P (octanol/water partition coefficient): values listed in the description, CRC Handbook or US National Library of Medicine tables
[2] = water dissolution of the solid form; format: physicochemical
Excerpt: As formerly discussed, the complex compound collected with the proposed process is endowed with a good stability, favorable workability and, especially, optimal water solubility.

[3] = storage stability of the collected solid; format: physicochemical; conditions: when properly stored, under inert atmosphere
Excerpt: Moreover, after its isolation, the collected solid product can conveniently be stored for long periods of time, for instance up to 2 years when properly stored, (i.e. under inert atmosphere) in a form that is ready for use in the preparation of the MultiHance® formulation, by simple dissolution of the solid compound in the proper amount of a pharmaceutically acceptable aqueous solution, such as, for instance, the sterile water for injections (WFI) or any another proper aqueous medium, according to procedures commonly employed in the art.

[4] = solubility in solvent A (upper concentration limit); format: physicochemical
Excerpt: Higher concentrations (of the gadobenate compound in the solvent A), for instance of at least 10% or, preferably, equal to or higher than 20%, are, however, preferred for the use of the invention, conveniently reducing organic solvent waste.

| Structure (SMILES) | Log P of antisolvent B [1] | log P (octanol/water partition coefficient) [1] | further results |
| --- | --- | --- | --- |
| COCC(C)O (stereo not drawn) [1-methoxy-2-propanol] | −0.44 | −0.437 | – |
| CCC(C)=O [2-butanone] | – | 0.29 | – |
| O=C1CCCCC1 [cyclohexanone] | – | 0.81 | – |
| COCCOCCOC [diethylene glycol dimethyl ether] | −0.36* | −0.36 | – |
| O=C([O-])CN(CCN(CC(=O)[O-])CC(=O)[O-])CCN(CC(=O)O)C(COCc1ccccc1)C(=O)O.[Gd+3] (stereo not drawn) [gadobenate dimeglumine, gadolinium complex of the 4-carboxy-5,8,11-tris(carboxymethyl)-1-phenyl-2-oxa-5,8,11-triazatridecan-13-oic acid] | – | – | water required for complete dissolution ([2]; at 25-30° C.): less than 1 mL of water for 1 g of product; time to complete ready dissolution in water ([2]; less than 1 mL of water for 1 g of product at 25-30° C.): less than five minutes; storage time of the collected solid product [3]: up to 2 years; upper concentration limit consistent with solubility in methanol ([4]; solvent A methanol): about 50%; upper concentration limit based on solubility in water or aqueous solvent ([4]; solvent A water or aqueous solvent such as saline solution): about 70% |
| CC(=O)CC(C)C [methyl isobutyl ketone] | 0.56 | 0.56 | – |
| C1CCOC1 [tetrahydrofurane] | 0.46 | 0.46 | – |
